This note sets out measurements from ChEMBL document CHEMBL1127534, “2-Alkynyl derivatives of adenosine-5'-N-ethyluronamide: selective A2 adenosine receptor agonists with potent inhibitory activity on platelet aggregation” (J Med Chem, 1994).

The target in series [1] is T1, Adenosine receptor A1 (Rattus norvegicus, UniProt P25099).
T1 sequence (P25099 whole entry): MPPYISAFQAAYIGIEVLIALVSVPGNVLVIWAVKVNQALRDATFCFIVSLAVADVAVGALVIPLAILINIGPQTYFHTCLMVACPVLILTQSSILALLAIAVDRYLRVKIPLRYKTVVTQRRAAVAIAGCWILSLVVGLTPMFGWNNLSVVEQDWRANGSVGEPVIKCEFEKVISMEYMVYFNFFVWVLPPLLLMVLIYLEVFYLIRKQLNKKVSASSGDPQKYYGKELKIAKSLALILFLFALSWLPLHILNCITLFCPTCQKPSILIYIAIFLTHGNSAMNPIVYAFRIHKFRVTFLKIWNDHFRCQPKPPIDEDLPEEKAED
The series is described as follows: biochemical.
Description: Affinity for adenosine A1 receptor assayed in a competition assay in rat brain using [3H]-CHA as radioligand

In series [2] the target is T2, Adenosine A2 receptor (Rattus norvegicus, UniProt P29276+P30543).
Description: Affinity for the adenosine A2 receptor was evaluated in a competition assay in rat striatum using [3H]-CGS- 21680 as radioligand
A short description of series [3]: Hydrophobicity index (k') (RP-HPLC). The format is ADME.
Series [4] has as its target T2, Adenosine A2 receptor. The source holds these as a separate data set.
Description: Negative chronotropic activity via A2 Adenosine receptor was tested monitoring vasodilation in rat aorta
The target of series [5] is T1, Adenosine receptor A1. The series is described as follows: Negative chronotropic activity via A1 Adenosine receptor was tested in spontaneously beating rat atria. The format is functional.
The target of series [6] is T2, Adenosine A2 receptor. The series is described as follows: Vasorelaxant activity for A2 Adenosine receptor as vasodilation in rat aorta.
For a further series, the species on record is Oryctolagus cuniculus. The series is described as follows: Antiaggregatory effect was evaluated on rabbit platelet aggregation induced by ADP. The format is functional.
The target in series [7] is T1, Adenosine receptor A1. The series is described as follows: Negative chronotropic activity for A1 Adenosine receptor in spontaneously beating rat atria. The format is functional.
The target of series [8] is T1, Adenosine receptor A1. The series is described as follows: Affinity for A1 Adenosine receptor in rat brain using [3H]CHA. The format is tissue-based.
The target of series [9] is T2, Adenosine A2 receptor. The series is described as follows: Affinity for A2 Adenosine receptor in rat striatum using [3H]-CGS- 21680. Format: tissue-based.

Structures are written as SMILES.

For orientation: Ki means a dissociation constant, usually derived from enzyme kinetics or from competition with a known ligand. Read a high Ki as a looser hold on the target. As a reminder, the EC50 is the concentration needed to bring the measured effect to its halfway point. Turning to `CCNC(=O)[C@H]1O[C@@H](n2cnc3c(N)nc(C#CCN)nc32)[C@H](O)[C@@H]1O`, the values for the Ki at Adenosine receptor A1 [1] and on Adenosine A2 receptor [2] were 48.6 nM and 38.3 nM, respectively. Moreover, the “k'” value in series [3] turned out to be 0.15. In addition, the EC50 turned out to be 564 nM on Adenosine A2 receptor [4] and 730 nM at Adenosine receptor A1 [5].

`CCNC(=O)[C@H]1O[C@@H](n2cnc3c(N)nc(C#CC4(N)CCCCC4)nc32)[C@H](O)[C@@H]1O`: the values for the EC50 at Adenosine A2 receptor [6] and at Adenosine receptor A1 [7] were 779 nM and > 10000 nM, respectively. The Ki at Adenosine receptor A1 [1] amounted to 398 nM; on Adenosine A2 receptor [2], 39.4 nM. Also, the “k'” value in series [3] stood at 0.6. Also, the Ratio in the series filed under Oryctolagus cuniculus is recorded as 0.6.

For the molecule `OC[C@H]1O[C@@H](n2cnc3c(NC4CCCC4)nc(Cl)nc32)[C@H](O)[C@@H]1O`, in series [3], the “k'” value is 2.76.

As to `CCNC(=O)[C@H]1O[C@@H](n2cnc3c(N)nc(C#CCCCC#N)nc32)[C@H](O)[C@@H]1O`, the figures for the Ki on Adenosine receptor A1 [1] and at Adenosine A2 receptor [2] were 184 nM and 4.7 nM, respectively. Moreover, the “k'” value in [3] was 0.32. Besides, the EC50 at Adenosine A2 receptor [4] stood at 111 nM; on Adenosine receptor A1 [5], 2370 nM.

Take `CCNC(=O)[C@H]1O[C@@H](n2cnc3c(N)nc(C#CC4CCCCC4)nc32)[C@H](O)[C@@H]1O`: the Ki on Adenosine receptor A1 [1] stood at 236 nM; at Adenosine A2 receptor [2] it was 9.2 nM. Also, in series [3], the “k'” value amounted to 4.54. The EC50 at Adenosine A2 receptor [4] is 329 nM; at Adenosine receptor A1 [5] it was > 10000 nM.

Turning to `CCNC(=O)[C@H]1O[C@@H](n2cnc3c(N)nc(C#CC(O)CC)nc32)[C@H](O)[C@@H]1O` (stereo partly specified), the “k'” value in series [3] came out at 0.42. Also, the concentration for a half-maximal effect (EC50) on Adenosine A2 receptor [4] was 69.3 nM; on Adenosine receptor A1 [5], 153 nM. For the same molecule, the Ki came out at 20.4 nM at Adenosine receptor A1 [8] and 12.4 nM at Adenosine A2 receptor [9].

For `CCNC(=O)[C@H]1O[C@@H](n2cnc3c(N)nc(C#CCCCO)nc32)[C@H](O)[C@@H]1O`, the values for the inhibition constant Ki at Adenosine receptor A1 [1] and at Adenosine A2 receptor [2] were 99.9 nM and 11.3 nM, respectively. The “k'” value in series [3] is on record as 0.22. The results for the EC50 on Adenosine A2 receptor [4] and on Adenosine receptor A1 [5] were 300 nM and > 10000 nM, respectively.

On to `C=C(C)C#Cc1nc(N)c2ncn([C@@H]3O[C@H](C(=O)NCC)[C@@H](O)[C@H]3O)c2n1`, for which the results for the Ki at Adenosine receptor A1 [1] and on Adenosine A2 receptor [2] were 167 nM and 27.3 nM, respectively. The “k'” value in series [3] turned out to be 1.27. In addition, the EC50 is 1200 nM at Adenosine A2 receptor [4] and > 10000 nM on Adenosine receptor A1 [5].

`CCNC(=O)[C@H]1O[C@@H](n2cnc3c(N)nc(C#CC(O)c4ccccc4)nc32)[C@H](O)[C@@H]1O` (stereo partly specified): the Ki on Adenosine receptor A1 [1] is 2.5 nM; on Adenosine A2 receptor [2] it was 0.9 nM. Moreover, the “k'” value in series [3] is listed as 0.82. The figures for the EC50 at Adenosine A2 receptor [4] and at Adenosine receptor A1 [5] were 123 nM and 110 nM, respectively.

With `CCCCC#Cc1nc(N)c2ncn([C@@H]3O[C@H](C(=O)NCC)[C@@H](O)[C@H]3O)c2n1`, the results for the Ki on Adenosine receptor A1 [1] and on Adenosine A2 receptor [2] were 130 nM and 2.2 nM, respectively. Moreover, the “k'” value in [3] was found to be 2.57. Also, the values for the EC50 on Adenosine A2 receptor [4] and at Adenosine receptor A1 [5] were 596 nM and > 10000 nM, respectively.

In the case of `CCNC(=O)[C@H]1O[C@@H](n2cnc3c(N)nc(C#CC(C)(O)c4ccccc4)nc32)[C@H](O)[C@@H]1O` (stereo partly specified), the Ki is 32.7 nM at Adenosine receptor A1 [1] and 1.7 nM at Adenosine A2 receptor [2]. For the same molecule, the “k'” value in series [3] is given as 1.32. In addition, the figures for the 50% effective concentration (EC50) at Adenosine A2 receptor [4] and on Adenosine receptor A1 [5] were 456 nM and 2430 nM, respectively.

As for `CCNC(=O)[C@H]1O[C@@H](n2cnc3c(N)nc(C#CCCO)nc32)[C@H](O)[C@@H]1O`, the Ki at Adenosine receptor A1 [1] was determined as 47.3 nM; at Adenosine A2 receptor [2], 10.8 nM. The “k'” value in series [3] stood at 0.2. The EC50 was 59.4 nM on Adenosine A2 receptor [4] and > 10000 nM at Adenosine receptor A1 [5].

On to `CCNC(=O)[C@H]1O[C@@H](n2cnc3c(N)nc(C#CCCCCO)nc32)[C@H](O)[C@@H]1O`, for which the Ki at Adenosine receptor A1 [1] was 42.1 nM; at Adenosine A2 receptor [2] it was 6.8 nM. The “k'” value in series [3] was found to be 0.35. The EC50 at Adenosine A2 receptor [4] is 391 nM; on Adenosine receptor A1 [5] it was > 10000 nM.

With `CCNC(=O)[C@H]1O[C@@H](n2cnc3c(N)nc(C#CC4(O)CCCC4)nc32)[C@H](O)[C@@H]1O`, the results for the EC50 on Adenosine A2 receptor [6] and at Adenosine receptor A1 [7] were 159 nM and 475 nM, respectively. Also, the Ki was 4 nM at Adenosine receptor A1 [1] and 0.6 nM on Adenosine A2 receptor [2]. In series [3], the “k'” value was determined as 0.77. The Ratio in the series filed under Oryctolagus cuniculus is 5.3.

As for `CCNC(=O)[C@H]1O[C@@H](n2cnc3c(N)ncnc32)[C@H](O)[C@@H]1O` [NECA], in series [3], the “k'” value is recorded as 0.19.

As to `C#Cc1nc(N)c2ncn([C@@H]3O[C@H](C(=O)NCC)[C@@H](O)[C@H]3O)c2n1`, the Ki at Adenosine receptor A1 [1] amounted to 35.4 nM; on Adenosine A2 receptor [2], 57.8 nM. Further, the “k'” value in series [3] is 0.25. Besides, the values for the EC50 at Adenosine A2 receptor [4] and on Adenosine receptor A1 [5] were 440 nM and 167 nM, respectively.

In the case of `CCNC(=O)[C@H]1O[C@@H](n2cnc3c(N)nc(C#CC(OCC)OCC)nc32)[C@H](O)[C@@H]1O`, the Ki on Adenosine receptor A1 [1] was determined as 656 nM; at Adenosine A2 receptor [2], 441 nM. Further, the “k'” value in [3] is listed as 1.63. In addition, the EC50 at Adenosine A2 receptor [4] is 382 nM; at Adenosine receptor A1 [5] it was > 10000 nM.

`CCNC(=O)[C@H]1O[C@@H](n2cnc3c(N)nc(C#CCCOC4CCCCO4)nc32)[C@H](O)[C@@H]1O` (stereo partly specified): the results for the half-maximal effective concentration (EC50) on Adenosine A2 receptor [6] and at Adenosine receptor A1 [7] were 115 nM and > 10000 nM, respectively. In addition, the Ki on Adenosine receptor A1 [1] came out at 267 nM; at Adenosine A2 receptor [2], 5 nM. The “k'” value in series [3] is 1.32. The Ratio in the series filed under Oryctolagus cuniculus is listed as 0.3.

`CCNC(=O)[C@H]1O[C@@H](n2cnc3c(N)nc(C#CC4=CCCCC4)nc32)[C@H](O)[C@@H]1O`: the values for the EC50 at Adenosine A2 receptor [6] and on Adenosine receptor A1 [7] were 3030 nM and > 10000 nM, respectively. In addition, the Ki was 3300 nM on Adenosine receptor A1 [1] and 61.3 nM at Adenosine A2 receptor [2]. In addition, the “k'” value in series [3] is 3.9. Moreover, the Ratio in the series listed under Oryctolagus cuniculus was found to be 0.03.

Regarding `CCNC(=O)[C@H]1O[C@@H](n2cnc3c(N)nc(C#CC(C)(O)CC(C)C)nc32)[C@H](O)[C@@H]1O` (stereo partly specified), the values for the Ki on Adenosine receptor A1 [1] and on Adenosine A2 receptor [2] were 3 nM and 0.5 nM, respectively. Besides, in series [3], the “k'” value is reported as 1.84. Besides, the half-maximal effective concentration (EC50) on Adenosine A2 receptor [4] was 338 nM; on Adenosine receptor A1 [5], > 10000 nM.

Take `CCNC(=O)[C@H]1O[C@@H](n2cnc3c(N)nc(C#CCC(C)O)nc32)[C@H](O)[C@@H]1O` (stereo partly specified): the Ki at Adenosine receptor A1 [1] was found to be 69.6 nM; at Adenosine A2 receptor [2], 56.4 nM. Besides, the “k'” value in series [3] was determined as 0.29. In addition, the 50% effective concentration (EC50) at Adenosine A2 receptor [4] worked out at 1650 nM; at Adenosine receptor A1 [5], 6050 nM.

Take `CCNC(=O)[C@H]1O[C@@H](n2cnc3c(N)nc(C#CCN(C)C)nc32)[C@H](O)[C@@H]1O`: the Ki turned out to be 27.9 nM on Adenosine receptor A1 [1] and 2.3 nM on Adenosine A2 receptor [2]. The “k'” value in [3] is recorded as 0.37. Further, the 50% effective concentration (EC50) turned out to be 140 nM at Adenosine A2 receptor [4] and 332 nM at Adenosine receptor A1 [5].

In the case of `CCNC(=O)[C@H]1O[C@@H](n2cnc3c(N)nc(C#CCO)nc32)[C@H](O)[C@@H]1O`, the inhibition constant (Ki) on Adenosine receptor A1 [1] was found to be 14.1 nM; at Adenosine A2 receptor [2], 9.1 nM. Moreover, the “k'” value in [3] is given as 0.17. In addition, the EC50 is 367 nM at Adenosine A2 receptor [4] and 84.2 nM on Adenosine receptor A1 [5].

For `CCNC(=O)[C@H]1O[C@@H](n2cnc3c(N)nc(C#CC(C)O)nc32)[C@H](O)[C@@H]1O` (stereo partly specified), the Ki is 11.1 nM at Adenosine receptor A1 [1] and 7.6 nM on Adenosine A2 receptor [2]. In series [3], the “k'” value is given as 0.23. Besides, the values for the EC50 at Adenosine A2 receptor [4] and at Adenosine receptor A1 [5] were 828 nM and 657 nM, respectively.

As for `CCNC(=O)[C@H]1O[C@@H](n2cnc3c(N)nc(C#CCCCCl)nc32)[C@H](O)[C@@H]1O`, the Ki stood at 37.9 nM at Adenosine receptor A1 [1] and 1 nM at Adenosine A2 receptor [2]. In series [3], the “k'” value was 1.35. The EC50 on Adenosine A2 receptor [4] amounted to 715 nM; on Adenosine receptor A1 [5], 2520 nM.
